Source: the NIST ThermoML archive (doi:10.1016/j.fluid.2004.11.024)
Several values for one entry are separate records, joined by “and”; a condition that tells them apart may be missing. Equal values may be shown once. ± gives the expanded uncertainty stated by the source.

Details: Liquid, Transpiration method

Row | Compound | vapor or sublimation pressure (293.3 K) [kPa] | vapor or sublimation pressure (298.1 K) [kPa] | vapor or sublimation pressure (301.2 K) [kPa] | vapor or sublimation pressure (306.2 K) [kPa] | vapor or sublimation pressure (311.2 K) [kPa] | vapor or sublimation pressure (313.3 K) [kPa] | vapor or sublimation pressure (316.3 K) [kPa] | vapor or sublimation pressure (318.2 K) [kPa] | vapor or sublimation pressure (321.3 K) | vapor or sublimation pressure (323.2 K) | vapor or sublimation pressure (293.2 K) [kPa] | vapor or sublimation pressure (298.3 K) [kPa] | vapor or sublimation pressure (303.2 K) [kPa] | vapor or sublimation pressure (311.3 K) [kPa] | vapor or sublimation pressure (318.3 K) [kPa] | vapor or sublimation pressure (328.2 K) [kPa] | vapor or sublimation pressure (295.2 K) [kPa] | vapor or sublimation pressure (313.2 K) [kPa] | also measured
1 | CC(C)COc1ccccc1Br [1-bromo-2-isobutoxybenzene] | 0.00213 ± 0.00011 | 0.00325 ± 0.00017 | 0.00423 ± 0.00022 | 0.00634 ± 0.00033 | 0.00954 ± 0.0005 | 0.01119 ± 0.00059 | 0.01398 ± 0.00073 | 0.01628 ± 0.00085 | 0.02031 ± 0.001 kPa | 0.02325 ± 0.0012 kPa |  |  |  |  |  |  |  |  | vapor or sublimation pressure (295.3 K): 0.00252 ± 0.00013 kPa; vapor or sublimation pressure (303.3 K): 0.00511 ± 0.00027 kPa; vapor or sublimation pressure (308.3 K): 0.00753 ± 0.0004 kPa
2 | CC(C)COc1ccc(Br)cc1 [1-bromo-4-isobutoxybenzene] |  |  | 0.00304 ± 0.00016 | 0.0048 ± 0.00025 |  | 0.0081 ± 0.00043 |  |  | 0.01498 ± 0.00078 kPa | 0.01699 ± 0.0009 kPa | 0.00151 ± 8e-05 | 0.00242 ± 0.00013 | 0.00351 ± 0.00019 | 0.00687 ± 0.00036 | 0.01175 ± 0.00062 | 0.02634 ± 0.0014 |  |  | vapor or sublimation pressure (308.4 K): 0.00538 ± 0.00028 kPa; vapor or sublimation pressure (316.2 K): 0.0101 ± 0.00053 kPa; vapor or sublimation pressure (326.3 K): 0.0224 ± 0.0012 kPa; vapor or sublimation pressure (331.2 K): 0.03352 ± 0.0018 kPa; vapor or sublimation pressure (333.2 K): 0.0391 ± 0.002 kPa
3 | Cc1ccc(OCC(C)C)c(Br)c1 [2-bromo-1-isobutoxy-4-methylbenzene] |  |  | 0.00132 ± 7e-05 | 0.00213 ± 0.00011 | 0.00322 ± 0.00017 |  | 0.00506 ± 0.00027 | 0.00591 ± 0.00031 | 0.00752 ± 0.0004 kPa and 0.00762 ± 0.0004 kPa | 0.00914 ± 0.00048 kPa and 0.00897 ± 0.00047 kPa and 0.00883 ± 0.00047 kPa | 0.0006 ± 3e-05 | 0.00103 ± 5e-05 |  |  |  | 0.01293 ± 0.00067 | 0.00076 ± 4e-05 | 0.00385 ± 0.00021 | vapor or sublimation pressure (300.2 K): 0.0012 ± 6e-05 kPa; vapor or sublimation pressure (303.1 K): 0.0016 ± 8e-05 kPa; vapor or sublimation pressure (303.8 K): 0.00167 ± 9e-05 kPa; vapor or sublimation pressure (306.1 K): 0.00208 ± 0.00011 kPa; vapor or sublimation pressure (308.2 K): 0.00261 ± 0.00014 kPa; vapor or sublimation pressure (309.1 K): 0.00271 ± 0.00014 kPa; vapor or sublimation pressure (311.1 K): 0.00328 ± 0.00017 kPa; vapor or sublimation pressure (318.7 K): 0.00622 ± 0.00033 kPa; vapor or sublimation pressure (321.2 K): 0.00746 ± 0.00039 kPa; vapor or sublimation pressure (326.2 K): 0.01113 ± 0.00058 kPa
4 | CC(C)COc1cccc(Br)c1 [1-bromo-3-isobutoxybenzene] | 0.00194 ± 0.0001 | 0.00301 ± 0.00016 |  | 0.00607 ± 0.00032 |  |  |  |  | 0.01929 ± 0.001 kPa | 0.02231 ± 0.0012 kPa |  |  | 0.00465 ± 0.00025 | 0.00909 ± 0.00048 | 0.01567 ± 0.00082 |  | 0.00232 ± 0.00012 | 0.0106 ± 0.00056 | vapor or sublimation pressure (290.2 K): 0.00145 ± 8e-05 kPa; vapor or sublimation pressure (301.1 K): 0.00389 ± 0.0002 kPa; vapor or sublimation pressure (308.1 K): 0.00703 ± 0.00037 kPa; vapor or sublimation pressure (316.1 K): 0.01312 ± 0.00069 kPa
